Laboratory results reported in US20100184699A1, “Peptide Derived From Prostate-Related Protein As Cancer Vaccine Candidate For Prostate Cancer Patient Who Is Positive For Hla-A3 Super-Type Allele Molecule” (priority 2005, published 2010).

System: peptide-specific IgG in plasma of prostate cancer patients and healthy donors
Experiment: Detection of peptide-specific IgG in plasma by ELISA
Assay type: binding, human
Settings: for IgG reactive to peptide in plasma: 1:100-diluted plasma
[1] = Prostate cancer patient 12, A11
[2] = Prostate cancer patient 16, A33
[3] = Prostate cancer patient 17, A33
[4] = Prostate cancer patient 19, A33
[5] = Prostate cancer patient 20, A33
[6] = Prostate cancer patient 14, A33

Sequence	IgG reactive to peptide in plasma, Total (positive/tested) (Healthy donors)	IgG reactive to peptide in plasma (Prostate cancer patient 2, A31)	IgG reactive to peptide in plasma (Prostate cancer patient 4, A31)	IgG reactive to peptide in plasma (Prostate cancer patient 5, A31)	IgG reactive to peptide in plasma (Prostate cancer patient 6, A31)	IgG reactive to peptide in plasma (Prostate cancer patient 8, A11)	IgG reactive to peptide in plasma (Prostate cancer patient 9, A11)	IgG reactive to peptide in plasma [1]	IgG reactive to peptide in plasma [2]	IgG reactive to peptide in plasma [3]	IgG reactive to peptide in plasma [4]	IgG reactive to peptide in plasma [5]	IgG reactive to peptide in plasma, Total (positive/tested) (Prostate cancer patients)	IgG reactive to peptide in plasma (Prostate cancer patient 7, A11)	IgG reactive to peptide in plasma [6]	IgG reactive to peptide in plasma (Prostate cancer patient 18, A33)
FQRLGIASGR (PSMA 525-534) [PSMA-derived peptide]	0/9	+ (IgG reactive to a corresponding peptide was judged to be positive when a difference of the optical density (OD) in a 1:100-diluted plasma was more than 100)	+ (IgG reactive to a corresponding peptide was judged to be positive when a difference of the optical density (OD) in a 1:100-diluted plasma was more than 100)	+ (IgG reactive to a corresponding peptide was judged to be positive when a difference of the optical density (OD) in a 1:100-diluted plasma was more than 100)	+ (IgG reactive to a corresponding peptide was judged to be positive when a difference of the optical density (OD) in a 1:100-diluted plasma was more than 100)	+ (IgG reactive to a corresponding peptide was judged to be positive when a difference of the optical density (OD) in a 1:100-diluted plasma was more than 100)	+ (IgG reactive to a corresponding peptide was judged to be positive when a difference of the optical density (OD) in a 1:100-diluted plasma was more than 100)	+ (IgG reactive to a corresponding peptide was judged to be positive when a difference of the optical density (OD) in a 1:100-diluted plasma was more than 100)	+ (IgG reactive to a corresponding peptide was judged to be positive when a difference of the optical density (OD) in a 1:100-diluted plasma was more than 100)	+ (IgG reactive to a corresponding peptide was judged to be positive when a difference of the optical density (OD) in a 1:100-diluted plasma was more than 100)	+ (IgG reactive to a corresponding peptide was judged to be positive when a difference of the optical density (OD) in a 1:100-diluted plasma was more than 100)	+ (IgG reactive to a corresponding peptide was judged to be positive when a difference of the optical density (OD) in a 1:100-diluted plasma was more than 100)	11/20			
TLRGAVEPDR [PSMA 361-370]	0/9	+ (IgG reactive to a corresponding peptide was judged to be positive when a difference of the optical density (OD) in a 1:100-diluted plasma was more than 100)	+ (IgG reactive to a corresponding peptide was judged to be positive when a difference of the optical density (OD) in a 1:100-diluted plasma was more than 100)		+ (IgG reactive to a corresponding peptide was judged to be positive when a difference of the optical density (OD) in a 1:100-diluted plasma was more than 100)	+ (IgG reactive to a corresponding peptide was judged to be positive when a difference of the optical density (OD) in a 1:100-diluted plasma was more than 100)	+ (IgG reactive to a corresponding peptide was judged to be positive when a difference of the optical density (OD) in a 1:100-diluted plasma was more than 100)	+ (IgG reactive to a corresponding peptide was judged to be positive when a difference of the optical density (OD) in a 1:100-diluted plasma was more than 100)		+ (IgG reactive to a corresponding peptide was judged to be positive when a difference of the optical density (OD) in a 1:100-diluted plasma was more than 100)	+ (IgG reactive to a corresponding peptide was judged to be positive when a difference of the optical density (OD) in a 1:100-diluted plasma was more than 100)	+ (IgG reactive to a corresponding peptide was judged to be positive when a difference of the optical density (OD) in a 1:100-diluted plasma was more than 100)	12/20	+ (IgG reactive to a corresponding peptide was judged to be positive when a difference of the optical density (OD) in a 1:100-diluted plasma was more than 100)	+ (IgG reactive to a corresponding peptide was judged to be positive when a difference of the optical density (OD) in a 1:100-diluted plasma was more than 100)	+ (IgG reactive to a corresponding peptide was judged to be positive when a difference of the optical density (OD) in a 1:100-diluted plasma was more than 100)
SYKHEQVYIR (PAP 96-105) [PAP-derived peptide]	1/9												1/20		+ (IgG reactive to a corresponding peptide was judged to be positive when a difference of the optical density (OD) in a 1:100-diluted plasma was more than 100)	
VIARYGKVFR (PSMA 201-210) [PSMA-derived peptide]	0/9		+ (IgG reactive to a corresponding peptide was judged to be positive when a difference of the optical density (OD) in a 1:100-diluted plasma was more than 100)		+ (IgG reactive to a corresponding peptide was judged to be positive when a difference of the optical density (OD) in a 1:100-diluted plasma was more than 100)		+ (IgG reactive to a corresponding peptide was judged to be positive when a difference of the optical density (OD) in a 1:100-diluted plasma was more than 100)	+ (IgG reactive to a corresponding peptide was judged to be positive when a difference of the optical density (OD) in a 1:100-diluted plasma was more than 100)	+ (IgG reactive to a corresponding peptide was judged to be positive when a difference of the optical density (OD) in a 1:100-diluted plasma was more than 100)	+ (IgG reactive to a corresponding peptide was judged to be positive when a difference of the optical density (OD) in a 1:100-diluted plasma was more than 100)	+ (IgG reactive to a corresponding peptide was judged to be positive when a difference of the optical density (OD) in a 1:100-diluted plasma was more than 100)	+ (IgG reactive to a corresponding peptide was judged to be positive when a difference of the optical density (OD) in a 1:100-diluted plasma was more than 100)	7/20			
RIYNVIGTLR [PSMA 354-363]	0/9				+ (IgG reactive to a corresponding peptide was judged to be positive when a difference of the optical density (OD) in a 1:100-diluted plasma was more than 100)							+ (IgG reactive to a corresponding peptide was judged to be positive when a difference of the optical density (OD) in a 1:100-diluted plasma was more than 100)	2/20			
FIDPLGLPDR (PSMA 675-684) [PSMA-derived peptide]	0/9	+ (IgG reactive to a corresponding peptide was judged to be positive when a difference of the optical density (OD) in a 1:100-diluted plasma was more than 100)	+ (IgG reactive to a corresponding peptide was judged to be positive when a difference of the optical density (OD) in a 1:100-diluted plasma was more than 100)	+ (IgG reactive to a corresponding peptide was judged to be positive when a difference of the optical density (OD) in a 1:100-diluted plasma was more than 100)	+ (IgG reactive to a corresponding peptide was judged to be positive when a difference of the optical density (OD) in a 1:100-diluted plasma was more than 100)	+ (IgG reactive to a corresponding peptide was judged to be positive when a difference of the optical density (OD) in a 1:100-diluted plasma was more than 100)	+ (IgG reactive to a corresponding peptide was judged to be positive when a difference of the optical density (OD) in a 1:100-diluted plasma was more than 100)	+ (IgG reactive to a corresponding peptide was judged to be positive when a difference of the optical density (OD) in a 1:100-diluted plasma was more than 100)		+ (IgG reactive to a corresponding peptide was judged to be positive when a difference of the optical density (OD) in a 1:100-diluted plasma was more than 100)	+ (IgG reactive to a corresponding peptide was judged to be positive when a difference of the optical density (OD) in a 1:100-diluted plasma was more than 100)	+ (IgG reactive to a corresponding peptide was judged to be positive when a difference of the optical density (OD) in a 1:100-diluted plasma was more than 100)	10/20			
RNKSVILLGR (PSA 68-77) [PSA-derived peptide]	0/9												0/20			
EYFVEMYYR (PAP 324-332) [PAP-derived peptide]	0/9												1/20		+ (IgG reactive to a corresponding peptide was judged to be positive when a difference of the optical density (OD) in a 1:100-diluted plasma was more than 100)	
WVLTAAHCIR [PSA 59-68]	0/9												0/20			
